This note sets out measurements from US10035800B2 (AbbVie Inc., priority 2013, dated 2018).

Where two headings read alike, the source gives them in different places.

The target of assay [1] is T1, BRD4 (BDI_K57-E168) (Homo sapiens, UniProt O60885).
T1 construct: BD1: amino acids K57-E168; made in house
Nature of the assay: TR-FRET bromodomain binding assay, first bromodomain of BRD4. Particulars: 100 nM probe. Put shortly: (§1)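 Ki values derive from IC50s using probe Kd and concentration, with IC50s fitted to normalized TR-FRET ratios (Ex 340/Em 495, 520). Compounds competed against an Alexa647-labelled BET-inhibitor (100 nM BDI, 30 nM BDII) for 8 nM His-tagged bromodomain bound by Eu-anti-His antibody, 1 h, room temperature, pH 6.0.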

Assay [2] concerns the target T2, BRD4 (BDII_E352-M457) (Homo sapiens, UniProt O60885).
T2 construct: protocol; made in house
The assay is described as follows: TR-FRET bromodomain binding assay, second bromodomain of BRD4. Particulars: 30 nM probe. The procedure, abridged: as §1

Assay [3] has as its system breast cancer cell line MX-1. Nature of the assay: MX-1 cell line proliferation assay. It counts as cell-based. Particulars: MX-1 cells, 3-day proliferation assay, Cell Titer Glo, read-out: Cellular proliferation: EC50. Put shortly: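 EC50 comes from sigmoidal fits of Cell Titer Glo luminescence relative to DMSO controls, with assay MSR 2.1. Ten-point 3-fold dilutions (top 3 or 1 μM final) were added to MX-1 breast cancer cells after overnight adhesion. Cells were at 5000/well and proliferation ran 3 days.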

The mark [4] stands for this setting: TR-FRET assay protocol G (compound 0.92 μM-15 pM).
Where [5] appears, read: TR-FRET assay protocol E (compound 9.19 μM-150 pM).

Regarding `Cn1cc2c3c(c[nH]c3c1=O)C(CNC(=O)CNC(=O)OC(C)(C)C)N(c1ccc(F)cc1F)c1ccc(CS(C)(=O)=O)cc1-2` (stereo not drawn) [Example 135, tert-butyl (2-(((4-(2,4-difluorophenyl)-10-methyl-7-((methylsulfonyl)methyl)-11-oxo-3,4,10,11-tetrahydro-1H-1,4,10-triazadibenzo[cd,f]azulen-3-yl)methyl)amino)-2-oxoethyl)carbamate], the Ki amounted to 11.4 nM in assay [1] (setting [4]) and 2.14 nM in assay [2] (setting [4]). The EC50 in assay [3] stood at 510 nM.

Regarding `Cn1cc2c3c(c[nH]c3c1=O)C(CCCCCCO)N(c1ccc(F)cc1F)c1ccc(CS(C)(=O)=O)cc1-2` (stereo not drawn) [Example 136, 4-(2,4-difluorophenyl)-3-(6-hydroxyhexyl)-10-methyl-7-((methylsulfonyl)methyl)-3,4-dihydro-1H-1,4,10-triazadibenzo[cd,f]azulen-11(10H)-one], the Ki turned out to be 13.2 nM in assay [1] (setting [4]) and 1.33 nM in assay [2] (setting [4]). Further, the EC50 in assay [3] was 49.2 nM.

`CC(=O)NC1CCC(N2Cc3c[nH]c4c(=O)n(C)cc(c34)-c3cc(CS(C)(=O)=O)ccc32)CC1` (mixture of isomers) [Example 243, N-(4-(10-methyl-7-((methylsulfonyl)methyl)-11-oxo-10,11-dihydro-1H-1,4,10-triazadibenzo[cd,f]azulen-4(3H)-yl)cyclohexyl)acetamide]: the Ki in assay [1] (setting [4]) came to 1.85 nM; in assay [2] (setting [4]) it was 3.47 nM. Also, the EC50 in assay [3] was 153 nM.

Take `Cn1cc2c3c(c[nH]c3c1=O)CN(CC1CC1)c1ncc(S(N)(=O)=O)cc1-2` [Example 10, 4-(cyclopropylmethyl)-10-methyl-11-oxo-3,4,10,11-tetrahydro-1H-1,4,5,10-tetraazadibenzo[cd,f]azulene-7-sulfonamide]: the Ki in assay [1] (setting [5]) is 6.94 nM; in assay [2] (setting [5]), 5.99 nM. Besides, the EC50 in assay [3] was 60.8 nM.

As for “1-((4-(2,4-difluorophenyl)-10-methyl-7-((methylsulfonyl)methyl)-11-oxo-3,4,10,11-tetrahydro-1H-1,4,10-triazadibenzo[cd,f]azulen-3-yl)methyl)-3-phenylurea [Example 138]”, the Ki was determined as 22.5 nM in assay [1] (setting [4]) and 1.94 nM in assay [2] (setting [4]). Further, in assay [3], the EC50 was determined as 256 nM.

For the compound `[2H]C1([2H])c2c[nH]c3c(=O)n(C)cc(c23)-c2cc(CS(C)(=O)=O)ccc2N1c1ccc(F)cc1F` [Example 218, 4-(2,4-difluorophenyl)-(3,3-^2H2)-10-methyl-7-((methylsulfonyl)methyl)-3,4-dihydro-1H-1,4,10-triazadibenzo[cd,f]azulen-11(10H)-one], the Ki in assay [1] (setting [4]) and in assay [2] (setting [4]) was 0.64 nM in each case. Further, the EC50 in assay [3] (Homo sapiens, MX1, 72 h) came out at 1.36 nM.

For `CCS(=O)(=O)c1ccc2c(c1)-c1cn(C)c(=O)c3[nH]cc(c13)CN2CC1CC1` [Example 2, 4-(cyclopropylmethyl)-7-(ethylsulfonyl)-10-methyl-3,4-dihydro-1H-1,4,10-triazadibenzo[cd,f]azulen-11(10H)-one], the Ki in assay [1] (setting [5]) was 24.6 nM; in assay [2] (setting [5]), 8.36 nM. Besides, the EC50 in assay [3] was 19.2 nM.

Turning to `Cn1cc2c3c(c[nH]c3c1=O)CN(CCCc1ccccc1)c1c(F)cc(F)cc1-2` [Example 51, 5,7-difluoro-10-methyl-4-(3-phenylpropyl)-3,4-dihydro-1H-1,4,10-triazadibenzo[cd,f]azulen-11(10H)-one], the Ki in assay [1] (setting [4]) is 4.43 nM; in assay [2] (setting [4]) it was 13.2 nM. Also, in assay [3], the EC50 amounted to 174 nM.

As for `COC1CCN(C(=O)C2c3c[nH]c4c(=O)n(C)cc(c34)-c3cc(CS(C)(=O)=O)ccc3N2c2ccc(F)cc2)CC1` (stereo not drawn) [Example 40], the Ki is 29.4 nM in assay [1] (setting [4]) and 136 nM in assay [2] (setting [4]). Further, the EC50 in assay [3] amounted to 398 nM.

For `Cn1cc2c3c(c[nH]c3c1=O)CN(C(C#N)c1ccccc1)c1ccc(CS(C)(=O)=O)cc1-2` (stereo not drawn) [Example 261], the Ki in assay [1] (setting [4]) amounted to 9.32 nM; in assay [2] (setting [4]), 7.78 nM. Also, in assay [3], the EC50 is > 1000 nM.

`Cn1cc2c3c(c[nH]c3c1=O)C(CCC(=O)N1CCN(C(=O)OC(C)(C)C)CC1)N(c1ccc(F)cc1F)c1ccc(CS(C)(=O)=O)cc1-2` (stereo not drawn) [Example 125, tert-butyl 4-(3-(4-(2,4-difluorophenyl)-10-methyl-7-((methylsulfonyl)methyl)-11-oxo-3,4,10,11-tetrahydro-1H-1,4,10-triazadibenzo[cd,f]azulen-3-yl)propanoyl)piperazine-1-carboxylate]: the Ki in assay [1] (setting [4]) turned out to be 9.26 nM; in assay [2] (setting [4]), 2.36 nM. The EC50 in assay [3] was determined as 342 nM.

On to `CCS(=O)(=O)c1ccc2c(c1)-c1cn(C)c(=O)c3[nH]cc(c13)CN2[C@H](C)c1ccccc1` [Example 265, (R)-7-(ethylsulfonyl)-10-methyl-4-(1-phenylethyl)-3,4-dihydro-1H-1,4,10-triazadibenzo[cd,f]azulen-11(10H)-one], for which the Ki in assay [1] (setting [4]) is 25.6 nM; in assay [2] (setting [4]), 4.21 nM. Also, the EC50 in assay [3] came to 170 nM.

Take `Cn1cc2c3c(c[nH]c3c1=O)C(CN1C(=O)c3ccccc3C1=O)N(c1ccc(F)cc1F)c1ccc(CS(C)(=O)=O)cc1-2` [Example 205, (R)-2-((4-(2,4-difluorophenyl)-10-methyl-7-((methylsulfonyl)methyl)-11-oxo-3,4,10,11-tetrahydro-1H-1,4,10-triazadibenzo[cd,f]azulen-3-yl)methyl)isoindoline-1,3-dione]: the Ki in assay [1] (setting [4]) was 200 nM; in assay [2] (setting [4]) it was 29.1 nM. The EC50 in assay [3] was > 1000 nM.

Turning to `CCC(=O)N1Cc2c[nH]c3c(=O)n(C)cc(c23)-c2cc(CS(C)(=O)=O)ccc21` [Example 105, 10-methyl-7-((methylsulfonyl)methyl)-4-propionyl-3,4-dihydro-1H-1,4,10-triazadibenzo[cd,f]azulen-11(10H)-one], the Ki is 5.49 nM in assay [1] (setting [4]) and 2.68 nM in assay [2] (setting [4]). Besides, the EC50 in assay [3] was 16.2 nM.

As for `Cn1cc2c3c(c[nH]c3c1=O)C(C(=O)NCc1ccccc1)N(c1ccc(F)cc1F)c1ccc(CS(C)(=O)=O)cc1-2` (racemic) [Example 159, N-benzyl-4-(2,4-difluorophenyl)-10-methyl-7-((methylsulfonyl)methyl)-11-oxo-3,4,10,11-tetrahydro-1H-1,4,10-triazadibenzo[cd,f]azulene-3-carboxamide], the Ki in assay [1] (setting [4]) worked out at 38.6 nM; in assay [2] (setting [4]), 19.8 nM. The EC50 in assay [3] is 57.8 nM.

In the case of `CN(C)C(=O)c1cc(CS(C)(=O)=O)cc2c1N(c1ccc(F)cc1F)Cc1c[nH]c3c(=O)n(C)cc-2c13` [Example 242, 4-(2,4-difluorophenyl)-N,N,10-trimethyl-7-((methylsulfonyl)methyl)-11-oxo-3,4,10,11-tetrahydro-1H-1,4,10-triazadibenzo[cd,f]azulene-5-carboxamide], the Ki in assay [1] (setting [4]) was 12.6 nM; in assay [2] (setting [4]), 3.78 nM. Also, the EC50 in assay [3] was > 1000 nM.

Consider “4-(4-chlorophenyl)-10-methyl-2-(1-methyl-1H-pyrazol-4-yl)-7-(methylsulfonyl)-3,4-dihydro-1H-1,4,10-triazadibenzo[cd,f]azulen-11(10H)-one [Example 271]”, for which the Ki in assay [1] (setting [4]) worked out at 3.91 nM; in assay [2] (setting [4]), 1.64 nM. Further, in assay [3], the EC50 turned out to be 85.2 nM.

As for “N-(4-(4-fluorophenyl)-10-methyl-11-oxo-3,4,10,11-tetrahydro-1H-1,4,5,10-tetraazadibenzo[cd,f]azulen-7-yl)ethanesulfonamide [Example 22]”, the Ki in assay [1] (setting [4]) amounted to 0.875 nM; in assay [2] (setting [4]), 0.95 nM. Also, the EC50 in assay [3] stood at 1.71 nM.

On to `Cn1cc2c3c(c[nH]c3c1=O)C(c1ccccc1)N(c1ccc(F)cc1F)c1ccc(CS(C)(=O)=O)cc1-2` [Example 216, (S)-4-(2,4-difluorophenyl)-10-methyl-7-((methylsulfonyl)methyl)-3-phenyl-3,4-dihydro-1H-1,4,10-triazadibenzo[cd,f]azulen-11(10H)-one], for which the figures for the Ki in assay [1] (setting [4]) and in assay [2] (setting [4]) were 57.3 nM and 65.8 nM, respectively. Further, the EC50 in assay [3] was 603 nM.

Take `CCOC(=O)N1Cc2c[nH]c3c(=O)n(C)cc(c23)-c2cc(CS(C)(=O)=O)ccc21` [Example 87, ethyl 10-methyl-7-((methylsulfonyl)methyl)-11-oxo-10,11-dihydro-1H-1,4,10-triazadibenzo[cd,f]azulene-4(3H)-carboxylate]: the Ki in assay [1] (setting [4]) was found to be 2.54 nM; in assay [2] (setting [4]) it was 2.1 nM. Also, in assay [3], the EC50 amounted to 4.69 nM.

For the compound `CC#CCOC(=O)N1Cc2c[nH]c3c(=O)n(C)cc(c23)-c2cc(CS(C)(=O)=O)ccc21` [Example 98, but-2-yn-1-yl 10-methyl-7-((methylsulfonyl)methyl)-11-oxo-10,11-dihydro-1H-1,4,10-triazadibenzo[cd,f]azulene-4(3H)-carboxylate], the Ki in assay [1] (setting [4]) was determined as 2.34 nM; in assay [2] (setting [4]) it was 3.15 nM. For the same compound, the EC50 in assay [3] was 4.41 nM.

Regarding `COC(=O)CCC1c2c[nH]c3c(=O)n(C)cc(c23)-c2cc(CS(C)(=O)=O)ccc2N1c1ccc(F)cc1F` (stereo not drawn) [Example 82, methyl 3-(4-(2,4-difluorophenyl)-10-methyl-7-((methylsulfonyl)methyl)-11-oxo-3,4,10,11-tetrahydro-1H-1,4,10-triazadibenzo[cd,f]azulen-3-yl)propanoate], the Ki is 13.3 nM in assay [1] (setting [4]) and 1.12 nM in assay [2] (setting [4]). In addition, the EC50 in assay [3] was determined as 979 nM.
